Patent publication US4499019A, “N-(1-allyl-2-pyrrolidylmethyl)-2,3-dimethoxy-5-sulfamoylbenzamide and derivatives thereof and method for treating hot flushes associated with natural or surgical menopause” (Societe D'Etudes Scientifiques et Industrielles de l'Ile de …, priority 1976, dated 1985)
Read-outs that look alike come from different tables or passages of the source.

Legend:
[1] = Acute toxicity in the Swiss mouse (parenteral and oral administration); conditions: in vivo
Text: (§1) The acute toxicity of the compound was studied in the Swiss mouse with both parenteral and oral administration and in the Wistar rat with oral administration.

Wistar rat = assay: Acute toxicity in the Wistar rat (oral administration); format: in vivo
Text: as §1
However, the LD0 is approximately 1.5 g/kg.

[2] = Semichronic toxicity in the Wistar rat, oral, four weeks; conditions: in vivo, doses 0.5, 1 and 2 g/kg per 24 hours, read-out: relatively or completely non-toxic up to (dose)
Experimental: In the rat the compound was administered in doses of 0.5, 1 and 2 g/kg per 24 hours.

female rat = assay: Effects on ovary, vaginal cytology and mammary glands in the female rat; format: in vivo
Text: (§2) Experiments have been carried out on both the female rat and the female hamster. The changes produced by the compound at the level of the ovary and of vaginal cytology make it possible to predict a point of impact located at the level of the hypothalamo hypophyso-ovarian axis.

female hamster = assay: Effects on ovary and mammary glands in the female hamster; format: in vivo
Text: as §2

[3] = test system: psycho neuro-vegetative symptoms of the menopause; assay: Double-blind study against placebo on the psycho neuro-vegetative symptoms of the menopause; format: in vivo, human; conditions: forty observations, double blinding against placebo
Text: The action of the compound on the psycho neuro-vegetative symptoms of the menopause has been studied with double blinding against placebo.

[4] = test system: psycho neuro-vegetative syndrome of the natural or surgical menopause; assay: Clinical results in patients with psycho neuro-vegetative syndrome of the menopause (243 patients); format: in vivo, human
male rats = conditions: rat, in vivo, sc
Experimental: The compound was administered subcutaneously to male rats. The criterion for the cataleptic state was the immobility of the animal for 30 seconds with its front limbs apart and arranged carefully on cubes of wood 4 centimeters high, thus placing the animal in an unaccustomed and uncomfortable position.

patients = conditions: human, in vivo
[5] = test system: psycho neuro-vegetative syndrome of the natural or surgical menopause
Experimental: A patient, suffering considerable neuro-vegetative symptoms in the natural menopause mainly with attacks of sweating and hot flushes (30-40 a day), was treated orally with N-(1'-allyl-2'-pyrrolidylmethyl)-2,3-dimethoxy-5-sulfamoylbenzamide at a dosage of 100 mg per day. […] The following is a comparison of the patient's neuro-vegetative symptoms before treatment with treatment after eight days:
The patient was treated orally with N-(1'-allyl-2'-pyrrolidylmethyl)-2,3-dimethoxy-5-sulfamoylbenzamide at a dosage rate of 100 mg per day.
A patient had considerable neuro-vegetative symptoms in the natural menopause with mainly hot flushes and headaches.
The patient was treated orally with N-(1'-allyl-2'-pyrrolidylmethyl)-2,3-dimethoxy-5-sulfamoylbenzamide at a dosage rate of 100 mg per day for twenty days.
The patient was treated again in the same manner as previously at a dosage rate of 100 mg per day for twenty days.
A patient suffered neuro-vegetative symptoms in the surgical menopause with mainly hot flushes which set in following a hysterectomy for a fibroid tumor.

[6] = female rat, subcutaneous injections, 3.5 and 10 mg/kg
[7] = female hamster, subcutaneous injections, 3.5 and 10 mg/kg
[8] = Example 18, 100 mg per day oral, after eight days, before: Severe
[9] = Example 19, 100 mg per day oral, eight days, before: Severe
[10] = Example 20, 100 mg per day oral for twenty days, before: Severe
[11] = Example 21, 100 mg per day oral for twenty days, before: Severe
[12] = Example 21, 100 mg per day oral for twenty days, before: Yes
[13] = Example 22, 100 mg per day oral for twenty days, before: Medium
[14] = Example 22, 100 mg per day oral for twenty days, before: Yes
[15] = Example 23, 100 mg per day oral for twenty days, before: Severe
[16] = Example 23, 100 mg per day oral for twenty days, before: Yes

C=CCN1CCCC1CNC(=O)c1cc(S(N)(=O)=O)cc(OC)c1OC (stereo not drawn) [N-(1'-allyl-2'-pyrrolidylmethyl)-2,3-dimethoxy-5-sulfamoylbenzamide]
LD50 ([1]; ip): 320 mg/kg | LD50 ([1]; iv): 124 to 129 mg/kg | LD50 ([1]; po): 1300 mg/kg | LD50 ([1]; sc): 465 to 518 mg/kg | LD50 (Wistar rat; Wistar rat, oral): toxicity of the compound was so low that the LD50 could not be determined | LD0 (Wistar rat; rat, in vivo, po): approximately 1.5 g/kg | LD100 (Wistar rat; rat, in vivo, po): > 4000 mg/kg | NOAEL at 672 h [2]: 1000 mg/kg/day | change to the uterus (female rat; female rat): little change to the uterus | vaginal cycle (female rat; female rat): blocked in dioestrus | vaginal epithelium (female rat; female rat): primsmatic, indicating the predominance of progesterone over estrogens | corpora lutea of the ovary (female rat; [6]): caused the corpora lutea of the ovary to be maintained | progesterone secretion by the maintained corpora lutea (female rat; [6]): secreted increased quantities of progesterone | susceptibility, rat versus hamster (female rat; mammary gland development): The rat appeared to be more susceptible than the hamster | development of the mammary glands (female rat; rat): development of the mammary glands was noted | secretory activity of the mammary glands (female rat; rat, at the highest doses): signs of secretory activity | corpora lutea of the ovary (female hamster; [7]): caused the corpora lutea of the ovary to be maintained | progesterone secretion by the maintained corpora lutea (female hamster; [7]): secreted increased quantities of progesterone | development of the mammary glands (female hamster; hamster): development of the mammary glands was noted | secretory activity of the mammary glands (female hamster; hamster, at the highest doses): signs of secretory activity | difference between compound and placebo [3]: very significant difference | Vulvar Irritation: Percentage Very Good & Good ([4]; 32 cases): 84% | Vulvar Irritation: Results, Average & Zero (number of cases) ([4]; 32 cases): 5 | Vulvar Irritation: Results, Very Good & Good (number of cases) ([4]; 32 cases): 27 | Hot Flushes: Percentage Very Good & Good ([4]; 211 cases): 73.9% | Hot Flushes: Results, Average & Zero (number of cases) ([4]; 211 cases): 55 | Hot Flushes: Results, Very Good & Good (number of cases) ([4]; 211 cases): 156 | effectiveness excellent or good in hot flushes ([4]; cases of hot flushes): 74 % of the cases | vulvar irritation eliminated ([4]; cases of vulvar irritation): 84 % of the cases | effective in psycho neuro-vegetative syndrome of the menopause (hot flashes, vulvar pruritus, vaginal diseases) ([4]; patients, menopause): 84 % of the cases treated | patient's mental state ([4]; patients, natural or surgical menopause): parallel improvement in the patient's mental state | cataleptic action (male rats): virtually no cataleptic action | animals made cataleptic (male rats; 200 mg/kg): 30% | clinical and biological tolerance (patients): excellent | side effects including mammary congestion, galactorrhea, drowsiness, etc. (cases) (patients): less than 8 % of the cases | acceptability of the treatment (patients; po): perfect acceptability | general tolerance (patients; po): excellent general tolerance | premature interruption of treatment, aversion or troublesome side effects (patients; po): In no case was the course of treatment interrupted prematurely | results of the treatment ([5]; 100 mg per day oral, first treatment, Examples 19, 20, 22): excellent | Headaches, After Treatment ([5]; Example 18, 100 mg per day oral, after eight days, before: Medium): None | Hot Flushes: Frequency, After Treatment [5, 8]: None | Hot Flushes: Intensity, After Treatment [5, 8]: None | Irritability, After Treatment [5, 8]: Slight | Anxiety, After Treatment ([5]; Example 18, 100 mg per day oral, after eight days, before: Slight): None | flashes and sweating attacks ([5]; Example 18, 100 mg per day oral, after two days (before: hot flushes 30-40 a day)): 8 per day | Anxiety, After Treatment ([5]; Example 19, 100 mg per day oral, eight days, before: Medium): Slight | Headaches, After Treatment [5, 9]: Slight | Hot Flushes: Frequency, After Treatment [5, 9]: None | Hot Flushes: Intensity, After Treatment [5, 9]: None | Irritability, After Treatment [5, 9]: Slight | Headaches, After Treatment ([5]; Example 20, 100 mg per day oral for twenty days, before: Medium): None | Hot Flushes: Frequency, After Treatment [5, 10]: None | Hot Flushes: Intensity, After Treatment [5, 10]: None | Irritability, After Treatment [5, 10]: Slight | Hot Flushes: Frequency, Twenty Days After Treatment [5, 11]: None | Hot Flushes: Intensity, Twenty Days After Treatment [5, 11]: None | Abdominal Meteorism, Twenty Days After Treatment [5, 12]: No | Anxiety, Twenty Days After Treatment [5, 12]: No | Hot Flushes: Frequency, Twenty Days After Treatment [5, 13]: None | Hot Flushes: Intensity, Twenty Days After Treatment [5, 13]: None | Anxiety, Twenty Days After Treatment [5, 14]: No | Irritability, Twenty Days After Treatment [5, 14]: No | reappearance of symptoms after end of second treatment ([5]; Example 23, 100 mg per day oral for twenty days): appeared again five days after termination of the second treatment | Hot Flushes: Frequency, Twenty Days After Treatment [5, 15]: Slight | Hot Flushes: Intensity, Twenty Days After Treatment [5, 15]: Slight | Anxiety, Twenty Days After Treatment [5, 16]: No | Depression, Twenty Days After Treatment [5, 16]: No | Irritability, Twenty Days After Treatment [5, 16]: Yes | Libido Change, Twenty Days After Treatment [5, 16]: Yes
